Data reported in US7345080B2, “Substituted 4-pyrazolyl pyrazonlines used for pest control” (Bayer CropScience AG, priority 2002, dated 2008).

Legend:
[1] = logP determination by HPLC (reversed-phase C 18), EEC Directive 79/831 Annex V.A8; type: physicochemical; conditions: acidic range, 0.1% aqueous phosphoric acid/acetonitrile; for chromatographic logP: reversed-phase C18 HPLC column, pH 2, reversed-phase C 18, 43° C.; for logP (pH 2): reversed-phase C 18, 43° C.
Method: The logP values given in the Tables and Preparation Examples above are determined in accordance with EEC Directive 79/831 Annex V.A8 by HPLC (High Performance Liquid Chromatography) using a reversed-phase column (C 18). Temperature: 43° C.
The determination is carried out in the acidic range at pH 2.3 using the-mobile phases 0.1% aqueous phosphoric acid and acetonitrile; linear gradient from 10% acetonitrile to 90% acetonitrile.

[2] = test system: caterpillars of the army worm (Spodoptera frugiperda); test: Spodoptera frugiperda test (dipped cabbage leaves); type: in vivo; conditions: for Efficacy in % after 7d: 500 ppm active compound, kill after 7 d, cabbage leaves (Brassica oleracea); for kill: active compound concentration of 500 ppm, after 7 days
Method: Spodoptera frugiperda Test
(§1) • Solvent: 7 parts by weight of dimethylformamide • Emulsifier: 2 parts by weight of alkylaryl polyglycol ether
(§2) To produce a suitable preparation of active compound, 1 part by weight of active compound is mixed with the stated amount of solvent and emulsifier, and the concentrate is diluted with emulsifier-containing water to the desired concentration.
Cabbage leaves (Brassica oleracea) are treated by being dipped into the preparation of active compound of the desired concentration and are populated with caterpillars of the army worm (Spodoptera frugiperda) while the leaves are still moist.
After the desired period of time, the kill in % is determined. 100% means that all caterpillars have been killed; 0% means that none of the caterpillars have been killed.

[3] = test system: larvae of the mustard beetle (Phaedon cochleariae); test: Phaedon larvae test (dipped cabbage leaves); type: in vivo; conditions: 500 ppm active compound, kill after 7 d, cabbage leaves (Brassica oleracea)
Method: as §1, §2
After the desired period of time, the kill in % is determined. 100% means that all beetle larvae have been killed; 0% means that none of the beetle larvae have been killed.

| Structure (SMILES) | chromatographic logP [1] | logP (pH 2) [1] | Efficacy in % after 7d [2] [%] | kill [2] [%] | Efficacy in % after 7d [3] [%] |
| --- | --- | --- | --- | --- | --- |
| CC(C)(C)n1nnc(-c2cnn(CC(=O)c3ccc(Cl)cc3)c2)n1 [2-[4-(2-tert-butyltetrazol-5-yl)pyrazol-1-yl]-4′-chloroacetophenone] | 2.96 |  |  |  |  |
| O=C(Cn1cc(-c2nn[nH]n2)cn1)c1ccc(Cl)cc1 [2-[4-(tetrazol-5-yl)pyrazol-1-yl]-4′-chloroacetophenone] | 1.6 |  |  |  |  |
| CC(C)(C)n1nnc(-c2cnn(C3CNN=C3c3ccc(Cl)cc3)c2)n1 (centres unmarked) [3-(4-chlorophenyl)-4-[4-(2-tert-butyltetrazol-5-yl)pyrazol-1-yl]4,5-dihydro-1H-pyrazole] | 2.91 |  |  |  |  |
| CC(C)(C)n1nnc(-c2cnn(C3CN(C(=O)Nc4ccc(OC(F)(F)F)cc4)N=C3c3ccc(Cl)cc3)c2)n1 (centres unmarked) [Example 1, N-(4-trifluoromethoxy)-3-(4-chlorophenyl)-4-[4-(2-tert-butyltetrazol-5-yl)pyrazol-1-yl]-4,5-dihydro-1-pyrazolecarboxanilide] |  | 4.63 |  |  |  |
| CC(C)(C)n1nnc(-c2cnn(C3CN(C(=O)N(CC#N)c4ccc(OC(F)(F)F)cc4)N=C3c3ccc(Cl)cc3)c2)n1 (centres unmarked) [Example 2, N-cyanomethyl-N(4-trifluoromethoxy)-3-(4-chlorophenyl)-4-[4-(2-tert-butyltetrazol-5-yl)pyrazol-1-yl]-4,5-dihydro-1-pyrazolecarboxanilide] |  | 4.40 | 100 | 100 | 100 |
| Cn1nnc(-c2cnn(C3CN(C(=O)Nc4ccc(OC(F)(F)F)cc4)N=C3c3ccc(Cl)cc3)c2)n1 (centres unmarked) [Example 4] | 3.75 |  | 100 | 100 |  |
| Cn1nnc(-c2cnn(C3CN(C(=O)N(CC#N)c4ccc(OC(F)(F)F)cc4)N=C3c3ccc(Cl)cc3)c2)n1 (centres unmarked) [Example 6] | 3.51 |  | 100 |  | 100 |
